Measurements published in patent publication US9345732B2, “Agents derived from Holoptelea integrifolia and their compositions for the control of metabolic syndrome and associated diseases” (Laila Nutraceuticals, priority 2009, dated 2016).

Experiment: Diet induced metabolic syndrome model in SD rats (body weight, fat tissue weight, serum lipids)
Type: in vivo, Sprague Dawley Rats
Details: end of 8 weeks treatment, Composition-1 250 mg/kg or sibutramine 7 mg/kg (FIG. 6A)
Protocol: The extracts of Holoptelea integrifolia were then combined with other herbal extracts and tested for their efficacy. […] The Metabolic syndrome was induced in Sprague Dawley Rats by feeding the rats high fat and high cholesterol diet containing roasted bengal gram, sucrose, milk powder, mineral salt mixture, yeast, butter, groundnut oil and cholesterol for 8 weeks. Following 8 weeks induction phase, the animals were treated daily either with 250 mg/kg body weight of composition-1 or 7 mg/kg body weight of sibutramine in 10 mL of 0.5% CMC for further 8 weeks. The control group of animals were received only the vehicle (10 mL of 0.5% CMC) during this period.
Animals were acclimatized for 7 days prior to study initiation. […]
Following 8 weeks induction phase, the animals were treated orally with 250 mg/kg body weight of Composition-1 or 7 mg/kg body weight of sibutramine in 10 mL of 0.5% CMC for further 8 weeks. […] Body weight of individual animal was recorded weekly in the entire duration of the study. […]
Various biochemical parameters including lipid profile were tested using biochemistry reagents supplied by Human, Germany, in an automated clinical chemistry analyzer HumaStar300, Make: Human, Germany. Mean values of the biochemical parameters estimated before induction, after induction/before treatment and after treatment were measured and compared.

CC(C)CC(N(C)C)C1(c2ccc(Cl)cc2)CCC1 (stereo not shown) [Sibutramine]
serum cholesterol levels: statistically significant reduction
